Laboratory results: patent US20090239953A1, “USE OF AN ANTI-CANCER COMPOUND” (priority 2006, published 2009)
Like-named read-outs stand apart in the source and are kept apart here.

Assays:
[1] = tested on: ovarian carcinoma cells (Caov-3 cells); experiment: TUNEL assay apoptosis, Caov-3; assay type: cell-based, human; conditions: Caov-3, IC50 values, 24 and 48 hours, P<0.05 or P<0.01 vs control
Excerpt: Apoptotic cells were quantified manually after TUNEL Assay. Data shown are mean±SD from duplicate samples. A single dagger denotes a P of <0.05 when compared with control; a double dagger denotes a P of <0.01 when compared with control as performed by One-Way ANOVA;

[2] = tested on: cervical cancer cells (HeLa cells); experiment: TUNEL assay apoptosis, HeLa; assay type: cell-based, human; conditions: IC50 values, 24 and 48 hours, P<0.01 vs control
Excerpt: Apoptosis was quantified manually after TUNEL Assay. Data shown are mean±SD from duplicate samples. A double dagger denotes a P of <0.01 when compared with control as performed by One-Way ANOVA;

[3] = tested on: human cervical cancer cells, HeLa; experiment: Micro Tetrazolium (MTT) cytotoxicity assay on HeLa
Experimental: HeLa and Caov-3 cell lines were maintained in RPMI 1640 and DMEM high glucose respectively, supplemented with 10% FCS, 1% penicillin and 1% streptomycin. Cells were allowed to proliferate as monolayer cultures in 25 cm^2 and 75 cm^2 tissues culture flasks, in a humidified atmosphere containing 5% CO2 at 37° C.
A haemacytometer was used to determine the concentration of cells in the flask. Confluent cells were trypsinised in order to detach cells from surface of the flask. 10 mL of fresh medium was added into the flask and the cells were suspended thoroughly. 10 μl of medium from the flask was then transferred into a haemacytometer with cover slip. The counting was done under an inverted microscope and facilitated by manual counter usage. The cell density (for an example 1×10^5 cells/mL) was calculated. Using a multi-channel pipette, 100 μl of cell culture solution was transferred into each well of a 96-well microtiter plate. For a 6 well microtiter plate, 2 ml of the cell culture solution was pipetted instead. The plate was incubated overnight at 37° C. in 5% CO2.
The concentrations of zerumbone in each experiment varied according to the optimization of the experiment conducted. The controls or untreated cells received only medium without any treatment of either compounds. Treated cells were then incubated at 37° C. in 5% CO2.
This assay is based on the metabolic reduction of soluble MTT by mitochondrial enzyme activity of viable cancer cells, into an insoluble coloured formazan product, which can be measured spectrophotometrically after dissolution in dimethyl sulfoxide (DMSO) (Carmichale et al., 1987). The MTT assay was conducted according to the methods of Kumi-Diaka et at (1998) with minor modifications. The concentration of MTT solution used was 5 mg/mL. The MTT solution was prepared by dissolving 250 mg of MTT powder in 50 mL of phosphate buffer saline (PBS). A 0.2 micron syringe filter was used to filter the dissolved MTT. The filtered MTT solution was transferred into a sterile 50 mL centrifuge tube and covered with aluminum foil. This solution was stored in 4° C. and is ready to be used. The MTT assay was carried out as follows:
96-well microtiter plates containing cell culture solution were removed from the incubator after 72 hours incubation. 20 μl of 5 mg/mL MTT solution was added into each well including control wells. The plates were then wrapped with aluminium foil and incubated further for 4 hours at 37° C. in 5% CO2. After incubation, excess MTT reagent was aspirated and 100 μl of DMSO was added to dissolve the remaining purple colour formazan crystals. The plates were gently mixed on a plate shaker for approximately 4 minutes. The absorbance of the formazan solution was determined at 450 nm using a microplate reader.

HeLa cancer cells [4] = experiment: Confocal microscopy with AO/PI stain, HeLa; assay type: cell-based, human; conditions: 48 hours, laser scanning confocal microscopy
Experimental: The plates were removed from the incubator after 24 and 48 hours of incubation period. The medium containing cells was transferred into labeled Eppendorf tubes (of each treated samples) placed in ice. The remaining cells in the wells were trypsinised until all cells were detached from the surfaces of each well. The medium containing cells in the Eppendorf tube was then transferred into the well of the tissue culture plate (of similar sample) to neutralise the trypsin. The medium in the wells was later transferred back into the Eppendorf tube (of similar sample) and centrifuged at 3000 rpm for 5 minutes, 4° C. Supernatant was discarded and 1 mL of 70% of cold alcohol was added. The pellet was re-suspended and placed in ice for 15 minutes for fixation. The samples were then centrifuged again at 3000 rpm for 5 minutes, 4° C. The supernatants containing the alcohol were discarded. The pellet was then re-suspended in 1 mL of phosphate buffer saline (PBS) and placed in ice for 10 minutes. The samples were centrifuged again, re-suspended in 1 mL of PBS and placed in ice for 10 minutes. This procedure was repeated again before discarding the supernatant.
The pellet containing cells was re-suspended with 15 μl of 10 μg/mL AO/PI mixture. Approximately 10 μl of the cell suspension was placed on a glass slide, and anti-fading agents were added onto the cells. […]

HeLa cells = experiment: Cell cycle study by flow cytometry, HeLa; assay type: cell-based, human; conditions: 24 hours, zerumbone 0 to 45 μM
Experimental: Cells were plated in 25 cm^2 tissue culture flasks at concentrations of 0.5×10^5 cells/mL. After an overnight incubation, the cells were cultured in the presence of zerumbone at concentrations as indicated above for 24 hours. Cells were harvested using trypsin-EDTA before centrifuging at 3000 rpm for 5 minutes. The cells pellet was then re-suspended in 2 mL of phosphate buffer saline (PBS). The re-suspended cells were centrifuged at 3000 rpm for 5 minutes and the resulting cells pellet was re-suspended again in 1 mL of cold PBS. The cells were fixed by the addition of 4 mL of cold absolute ethanol (kept in −20° C. prior to use). The fixed cells were stored in −20° C. overnight before resuming the staining procedure.

[5] = tested on: induced cervical cancer in female balb/c mice; experiment: DES-induced cervical cancer in female balb/c mice, cervical histology (H&E); assay type: in vivo; conditions: intra peritoneal, 4 dosages on alternate days, normal saline group CIN III
Experimental: 1 male mouse was cohabitate with 3 female mice for 48 hours prior to experiment to stimulate the ovulation of the female mice. After 48 hours, 1 male mouse was cohabitate with 1 female mouse. The next morning, the female mice were checked for a vaginal plug. The detection of vaginal plug at the vagina of the female mice were considered as the first day of pregnancy and gestation day (G=0). Once the female mouse was pregnant the corresponding male mouse was separated from the cage. Only one pregnant female mouse was placed in each cage to reduce the stress among the mice and also to reduce the chances of cannibalization of offspring by the mothers. The pregnant mice were given subcutaneous injection of 67 μg/kg body weight diethylstilbestrol (DES) dissolved in sesame oil (refer to appendix for DES preparation) from gestation day (13 to 18). Since the reproductive tract is developing during this time, so giving the DES injection too early may cause stillbirth. The mice gave birth approximately at gestation day (19 to 22). The offspring were weaned at 22 days of age. 1 female offspring was subjected for the confirmation of cervical dysplasia at 41 days of age. The other offspring were subjected for the treatment with cisplatin, zerumbone and normal saline.
All female offspring exposed to DES in uteri were pooled together and were divided into 4 groups where each group consists of 3 mice. […]

Caov-3 cancer cells = experiment: Morphological study under normal inverted microscope, Caov-3; assay type: cell-based, human; conditions: Caov-3, treated at IC50 value, 24, 48 and 72 hours
Experimental: (§1) Treated cancer cells of HeLa and Caov-3 in 96-well plates were observed under normal inverted microscope following 24, 48 and 72 hours of incubation. Apoptotic features of treated cells were examined and compared concurrently to untreated cells. The cells were observed under inverted microscope at magnification 20×10.

HeLa cancer cells [6] = experiment: Morphological study under normal inverted microscope, HeLa; assay type: cell-based, human; conditions: treated at IC50 value, 24, 48 and 72 hours
Experimental: as §1

Coa3 cancer cells = experiment: Cell cycle study by flow cytometry, Caov-3; assay type: cell-based, human; conditions: Coa3 (Caov-3) cancer cells
serum IL-6 = experiment: Serum IL-6 ELISA in mice with induced cervical cancer; assay type: in vivo; conditions: for Serum IL-6 levels vs normal saline treated mice: mice with induced cervical cancer, P<0.01 One-Way ANOVA
Experimental: All female offspring exposed to DES in uteri were pooled together and were divided into 4 groups where each group consists of 3 mice. The 5th group consists of 3 mice which was non-exposed to DES. The mice were given treatment starting from 46 days of age to 52 days of age. The treatment was given every alternate day (day 46, 48, 50, 52) which consist of 4 dosages. The treatment was given through intra peritoneal injection. The group 1 mice were treated with 0.9% of Normal Saline and this group acts as a positive control group. The group 2 mice were given 8 mg/kg of Zerumbone while the group 3 mice were given 16 mg/kg of Zerumbone. […] Finally no treatment was given to the mice in group 5 as they act as a negative control (normal mice) for the studies. Following treatment, all the mice were sacrificed at 54 days of age. The blood sample was collected through heart punctured method into a plain tube and was centrifuged at 3000 rpm for 15 minutes. The supernatant (serum) was collected into an eppendorf tube and was immediately stored in ice (0° C.—temporary storage). Once serum from all the samples was collected, the serum was stored at −20° C. Then the mice were dissected. The reproductive organ of the mice were collected and washed with 0.9% normal saline. The washed organ was soaked in 10% formalin and stored at room temperature.
The IL-6 serum levels in normal mice were used as negative control.

Structure (SMILES)	Apoptosis, apoptotic cells quantified after TUNEL Assay [1]	Apoptosis quantified after TUNEL Assay [2]	IC50 ([3]; Homo sapiens, 72 h, read-out: IC50 value (±S.E.M), growth proliferation of HeLa) [µM]	IC50 ([3]; Homo sapiens, 72 h, read-out: IC50 value, growth proliferation of HeLa) [µg/mL]	Morphological changes after AO/PI staining (HeLa cancer cells [4])	Cell cycle progression (G2/M, G1, S phase) (HeLa cells)	Cervical tissue dysplasia grade (CIN) ([5]; 16 mg/kg zerumbone)	Morphological changes / cell growth vs untreated control (Caov-3 cancer cells)	Morphological changes / cell growth vs untreated control (HeLa cancer cells [6])	Cell cycle progression (G2/M, G1, S phase) (Coa3 cancer cells)	Serum IL-6 levels vs normal mice (negative control) (serum IL-6; 16 mg/kg zerumbone)	Serum IL-6 levels vs normal saline treated mice (serum IL-6)	IC50 value, growth proliferation of HeLa ([3]; MTT, 72-hours post-treatment) [µg/mL]	IC50 ([3]; read-out: IC50 value (±S.E.M), growth proliferation of HeLa, MTT, 72-hours post-treatment) [µM]	Cervical tissue dysplasia grade (CIN) ([5]; 10 mg/kg cisplatin)	Serum IL-6 levels vs normal mice (negative control) (serum IL-6; 10 mg/kg cisplatin)
C/C1=C\CC(C)(C)/C=C/C(=O)/C(C)=C/CC1 [zerumbone]	induced apoptosis	induced apoptosis	11.3	2.5	blebbing of the cell membrane, nuclear condensation with margination and nuclear damage	increase in the number of HeLa cancer cells and Coa3 cancer cells in the G2/M phase and a decrease in the G1 phase and S phase	mild dysplastic changes (CIN I)	Prominent growth retardation	Prominent growth retardation	increase in the number of HeLa cancer cells and Coa3 cancer cells in the G2/M phase and a decrease in the G1 phase and S phase	almost near to the serum level of normal mice	lower				
N.N.[Cl][Pt][Cl] [cisplatin, reference compound]	induced apoptosis	induced apoptosis			blebbing of the cell membrane, nuclear condensation with margination and nuclear damage			Prominent growth retardation	Prominent growth retardation			lower	1.6	7.5	mild dysplastic changes (CIN I)	almost near to the serum level of normal mice
